Measurements: patent US10610590B2, “Electrochemical plasma activated aqueous chemotherapeutics” (Symbios Technologies, Inc., priority 2016, dated 2020)

Tested on: MIA PaCa-2 cells
Assay: Alamar blue cell proliferation assay, pancreatic cancer cells
Assay type: cell-based, human
Details: carboplatin 0.2, 1, 2.5, 5 and 10 μg/mL, 72 h incubation
Excerpt: All lines used were adherent human cell lines. • (i) Pancreatic cancer cell line: MIA PaCa-2 • Source: Available from ATCC (ATCC® CRL1420™) • Complete growth medium: Eagle's Minimum Essential Medium containing 5% fetal bovine serum and 5% cosmic calf serum • (ii) Human umbilical vein endothelial cells: HUVEC • Source: Available from ATCC (ATCC® PCS-100-010™) or Lonza (single or pooled donor) • Complete growth medium: EGM-2 BulletKit (Lonza) • (iii) Human foreskin fibroblasts: HFF-1 • Source: Available from ATCC (ATCC® SCRC-1041™) • Complete growth medium: Dulbecco's Modified Eagle's Medium containing 15% fetal bovine serum • (iv) Immortalized pancreas duct epithelial-like cells: hTERT-HPNE • Source: Available from ATCC (ATCC® CRL4023™) • Complete growth medium: Specialty Dulbecco's Modified Eagle's Medium composition, protocol available from ATCC • (v) Primary pancreatic stellate cells: Panc stellate • Source: Available from Applied Biological Materials (T4215) • Complete growth medium: Prigrow I containing 10% fetal bovine serum.
Each cell line was adherent in a growth flask, incubated at 37° C. and 5% CO2; de-attached cell from growth flask using Trypsin-EDTA solution (0.25% Trypsin, 0.53 mM EDTA); and counted by Trypan blue staining standard protocol. […]
A standard cell proliferation assay was used, the Alamar blue assay, to assess quantification of viable cells. […]

`N.N.O=C([O-])C1(C(=O)[O-])CCC1.[Pt+2]` [carboplatin] was tested, and the “human pancreatic cancer cell proliferation (positive control)” value was “dose dependent cell growth inhibition”.
